Among the data in ChEMBL document CHEMBL5104129, “Discovery of a novel 2-spiroproline steroid mimetic scaffold for the potent inhibition of 11β-HSD1” (Bioorg Med Chem Lett, 2022) are IC50 values, retold here.

For orientation: IC50 means the concentration needed to halve the response being measured. A lower IC50 goes with higher potency.

The target of the experiment is 11-beta-hydroxysteroid dehydrogenase 1 (Homo sapiens, UniProt P28845). The experiment in a line: Inhibition of 11beta-HSD1 (unknown origin).
Sequence of 11-beta-hydroxysteroid dehydrogenase 1 (P28845 whole entry): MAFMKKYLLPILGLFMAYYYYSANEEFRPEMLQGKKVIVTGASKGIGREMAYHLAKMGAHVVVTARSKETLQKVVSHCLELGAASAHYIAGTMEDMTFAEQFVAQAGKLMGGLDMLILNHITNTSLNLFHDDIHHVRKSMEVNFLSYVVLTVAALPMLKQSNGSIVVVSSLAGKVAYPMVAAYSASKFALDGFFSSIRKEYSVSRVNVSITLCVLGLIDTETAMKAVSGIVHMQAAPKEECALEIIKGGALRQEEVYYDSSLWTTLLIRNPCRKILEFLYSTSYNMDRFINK

Turning to `O=C(NC12CC3CC(CC(C3)C1)C2)[C@H]1CCCN1Cc1ccccn1`, the IC50 was found to be 12 nM. Compound `CC(C)CN1CCC[C@@H]1C(=O)NC1CCCCC1` returned an IC50 of 9 nM.
